Test results: ChEMBL document CHEMBL1123834, “Isozyme-specific enzyme inhibitors. 14. 5'(R)-C-[(L-homocystein-S-yl)methyl]adenosine 5'-(beta,gamma-imidotriphosphate), a potent inhibitor of rat methionine adenosyltransferases” (J Med Chem, 1987)

Experiments:
Assay type in all cases: protein assay
[1] = biological target: T1, S-adenosylmethionine synthetase (MAT 1 and MAT 2) (Rattus norvegicus, UniProt P13444+P18298); experiment: Inhibition constants of M-2 Forms of rat methionine adenosyltransferase using Methionine as the variable substrate; Inhibition is competitive type
[2] = biological target: T1, S-adenosylmethionine synthetase (MAT 1 and MAT 2); experiment: Inhibition constants of MT Forms of rat Novikoff Ascitic Hepatomae using ATP as the variable substrate; Inhibition is competitive type
[3] = biological target: T1, S-adenosylmethionine synthetase (MAT 1 and MAT 2); experiment: Inhibition constants of M-2 Forms of rat methionine adenosyltransferase using ATP as the variable substrate; Inhibition is competitive type
[4] = biological target: T1, S-adenosylmethionine synthetase (MAT 1 and MAT 2); experiment: Inhibition constants of MT Forms of rat Novikoff Ascitic Hepatomae using Methionine as the variable substrate; Inhibition is non competitive inhibition
[5] = biological target: T1, S-adenosylmethionine synthetase (MAT 1 and MAT 2); experiment: Inhibition constants of MT Forms of rat Novikoff Ascitic Hepatomae using Methionine as the variable substrate; Inhibition is non competitive type
[6] = biological target: T1, S-adenosylmethionine synthetase (MAT 1 and MAT 2); experiment: Inhibition constants of M-2 Forms of rat methionine adenosyltransferase using Methionine as the variable substrate; Inhibition is non competitive type

Ki [1] [µM] | Ki [2] [µM] | Ki [3] [µM] | Ki [4] [µM] | Ki [5] [µM] | Ki [6] [µM] | SMILES
26 | 11 | 16 | 38 | – | – | NC(CCSC(CP(=O)(O)OP(=O)(O)NP(=O)(O)O)[C@H]1O[C@@H](n2cnc3c2NC=NC3N)[C@H](O)[C@@H]1O)C(=O)O (stereo partly drawn)
– | 0.27 | 0.36 | – | 2.3 | 3 | NC(CCS[C@@H](CNP(=O)(O)OP(=O)(O)OP(=O)(O)O)[C@H]1OC(n2cnc3c2NC=NC3N)[C@H](O)[C@@H]1O)C(=O)O (stereo partly drawn)
